Test results from article PMC4992173, “Divergent synthesis and identification of the cellular targets of deoxyelephantopins” (Nature Communications, 2016).

Target: human PPARγ
Assay: Gel-based PPARγ binding kinetics (Kitz and Wilson)
Details: recombinant PPARγ, 10-60 min preincubation, 24c-Cy3 readout, n=3
Procedure: Briefly, recombinant human PPARγ was pretreated with compounds at 20 μM concentration followed by the probe 24c-Cy3. […] Assuming covalent bond formation with PPARγ, we applied the method of Kitz and Wilson[52] to determine the kinetic values Ki and kinact for deoxyelephantopin and compound 19a (Supplementary Fig. 17). We observed clear time-dependent shift in half-maximal inhibitory concentration (IC50) values characteristic for an irreversible mode of binding.
Supplementary figure 17: Determination of the kinetic values Ki and kinact for 19a and DEP as binders to human PPARγ (n = 3).
Supplementary figure 18: F γ
24c-Cy3 after pretreatment with 10 mM IAA or DMSO. […]
for 30 min. at 37 °C under 5% CO2 atmosphere. Cells were washed one time with PBS and fixed with 4% paraformaldehyde for 20 min. at r.t. Coverslips were washed three times with PBS, one time with water and then mounted on a slide with ProLong Gold antifade mountant with DAPI (Life Technologies). Cells were visualized with an LSM 700 confocal microscope […]
Annexin V and PI staining for cell microscopy. […]
In situ labeling experiments. […] Gels were visualized at 625 nm using a Hitachi FMBIO II Multi-View fluorescence scanner, then […]
visualization were performed as described above. Images were quantified with ImageJ and kinetics values were calculated using GraphPad Prism (V6.03). […]

| Structure (SMILES) | kinact/Ki |
| --- | --- |
| C=C(C)C(=O)O[C@H]1CC2=C[C@H](C/C=C\[C@H]3OC(=O)C(=C)[C@H]13)OC2=O [19a] | 1,241 M^−1 min^−1 |
| C=C(C)C(=O)O[C@H]1CC2=C[C@@H](C/C(C)=C/[C@H]3OC(=O)C(=C)[C@H]13)OC2=O [deoxyelephantopin] | 680 M⁻¹ min⁻¹ |
